Measured values: patent US20230105212A1, “BIPHENYL DERIVATIVE INHIBITOR, PREPARATION METHOD THEREFOR AND USE THEREOF” (SHANGHAI HANSOH BIOMEDICAL CO., LTD., priority 2020, published 2023)

Experiments:
[1] = molecular target: T1, PD-L1 protein on the surface of MC38-hPDL1 tumor cells (Homo sapiens, UniProt Q9NZQ7); test: Induction of endocytosis of PD-L1 on the surface of tumor cells (flow cytometry); format: cell-based; conditions: 16 hours incubation; for Emax: MC38-hPDL1 cells, read-out: MC38 maximum endocytosis rate; for IC50: inducing endocytosis of PD-L1, MC38-hPDL1 cells, read-out: MC38 IC50
T1 construct: expressed in transfected cells; host or cells: MC38-hPDL1 (mouse colon cancer cells)
Text: Test Embodiment 2. Test of the Activity of Compounds of the Present Disclosure on Inducing the Endocytosis of PD-L1 Protein on the Surface of Tumor Cells
Experimental purpose: The purpose of this test embodiment was to test the activity of the compound on inducing the endocytosis of PD-L1 on the surface of tumor cells.
Experimental method: In order to test the activity of the compound on inducing the endocytosis of PD-L1, in this experiment, the activity of the compound on inducing the endocytosis of PD-L1 was tested by detecting the change degree of PD-L1 on the tumor cell surface with fluorescently labeled anti-PD-L1 antibody, and the IC50 of activity of the compound on inducing the endocytosis of PD-L1 was obtained.
The mouse colon cancer cells MC38-hPDL1 with high expression of hPD-L1 were collected, and adjusted to a suitable density and plated in a 24-well plate, and placed in a 37° C., 5% CO2 incubator to adhere overnight. Compounds were prepared into different concentrations by medium and added to a 24-well plate, and a vehicle control well was set up. After the cells were incubated in a 37° C., 5% CO2 incubator for 16 hours, the 24-well plate was taken out, and MC38-hPDL1 cells with different treatments in the plate were collected. After the cells were washed once with FACS buffer (PBS containing 0.5% BSA), and the cells were prepared to an appropriate density with FACS buffer. PE Mouse Anti-Human CD274 antibody (BD Pharmingen #557924) was added, and the cells were shaken at room temperature and incubated for 30 minutes without light, then the cells were washed twice with FACS buffer, resuspended in 100 μL of PBS, and a flow cytometer was used to detect the fluorescent signal on the cell surface, and the isotype control was set as a negative control.
The endocytosis rate of the compounds was calculated from the fluorescence signals of different treatment groups, and the compound concentration and endocytosis rate were fitted by nonlinear regression using GraphPad Prism software, and IC50 values were obtained, as shown in Table 2.

[2] = molecular target: T2, human PD-1/PD-L1 binding (Homo sapiens, UniProt Q9NZQ7); test: Inhibition of human PD-1/PD-L1 binding (TR-FRET/HTRF); conditions: TR-FRET, PD-L1-His and PD-1-Fc; read-out: PD-1/PD-L1 binding IC50
T2 construct: PD-L1-His protein (19 to 238 amino acids) (Abcam #ab167713); purchased Abcam (PD-L1-His); R&D (PD-1-Fc) ab167713; 1086-PD
Text: Test Embodiment 1: Test of Inhibitory Effect of the Compounds of the Present Disclosure on Human PD-1/PD-L1 Binding
Experimental purpose: The purpose of this test embodiment was to measure the inhibitory activity of the compounds on human PD-1/PD-L1 binding.
Experimental reagents: Binding Domain diluent buffer was purchased from Cisbio Company, Cat. No.: 62DLBDDF; MAb Anti-6HIS Eu cryptate Gold was purchased from Cisbio Company with the article number of 61HI2KLA; PAb Anti Human IgG-XL665 was purchased from Cisbio Company with the article number of 61HFCXLB; PD-L1-His protein was purchased from Abcam Company with the article number of ab167713; PD-1-Fc protein was purchased from R&D Company with the article number of 1086-PD; Detection buffer was purchased from Cisbio Company with the article number of 62SDBRDD; 384-well plate was purchased from PerkinElmer Company with the article number of 6007290.
Experimental method: In order to test the inhibitory activity of the compounds on human PD-1/PD-L1 binding, the method of time-resolved fluorescence resonance energy transfer (TR-FRET) was used in this experiment to test the inhibition of the compounds on human PD-1/PD-L1 binding, and the half inhibitory concentration IC50 of inhibitory activity of the compounds on human PD-1/PD-L1 binding was obtained.
This experiment was performed in a 384-well plate with a total reaction volume of 20 μL. Compounds were diluted to different concentrations (10 μM or 1 μM starting, 3-fold dilution, 11 doses) using assay buffer Binding Domain diluent buffer (Cisbio #62DLBDDF), then PD-L1-His protein (19 to 238 amino acids) (Abcam #ab167713) was diluted to 10 nM with assay buffer, and PD-1-Fc protein (25 to 167 amino acids) (R&D #1086-PD) was diluted to 20 nM with assay buffer; the compound, PD-L1 protein and PD-1 protein were added to a 384-well plate respectively, and the total volume was 10 μL, then centrifuged at 1000 rpm for 1 minute to mix well, and incubated for 60 minutes at room temperature. Then 10 μL of a mixed solution of MAb Anti-6HIS Eu cryptate Gold (Cisbio #61HI2KLA) and PAb Anti Human IgG-XL665 (Cisbio #61HFCXLB) diluted by HTRF Detection buffer was added to each well, and centrifuged at 1000 rpm for 1 minute to mix well. The reaction was carried out at room temperature for 3 hours or at 4° C. overnight, then a microplate reader (BioTek Synergy H1) was put into for reading; the excitation wavelength was 340 nm, and the emission wavelengths were 620 nm and 665 nm.
The ratio of fluorescence readings at 620 nm and 665 nm (665 nm/620 nm) was calculated, and the inhibition rate was calculated.

T1 sequence (Q9NZQ7 19-290): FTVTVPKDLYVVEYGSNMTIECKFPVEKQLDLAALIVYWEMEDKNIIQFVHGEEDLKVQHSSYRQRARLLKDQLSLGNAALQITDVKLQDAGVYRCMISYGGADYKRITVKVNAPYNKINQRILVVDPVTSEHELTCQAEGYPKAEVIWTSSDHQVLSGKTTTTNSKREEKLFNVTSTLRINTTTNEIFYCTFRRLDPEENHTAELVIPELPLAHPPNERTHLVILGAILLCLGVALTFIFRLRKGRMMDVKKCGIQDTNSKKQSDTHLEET
T2 sequence (Q9NZQ7 19-238): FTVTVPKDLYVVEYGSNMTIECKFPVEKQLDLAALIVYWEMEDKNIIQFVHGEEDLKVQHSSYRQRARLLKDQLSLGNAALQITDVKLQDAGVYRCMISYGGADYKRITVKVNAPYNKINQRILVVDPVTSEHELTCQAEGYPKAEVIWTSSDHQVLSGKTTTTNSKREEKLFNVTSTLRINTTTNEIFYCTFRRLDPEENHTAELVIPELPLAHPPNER

Row | Emax [1] [%] | IC50 [1] [nM] | IC50 [2] [nM] | Compound
1 | 85 | 9.6 | 4.7 | COc1cc(-c2cccc(-c3cccc(NC(=O)c4nc5c(n4C)CCN(C)C5)c3Cl)c2C)ncc1CNC1CCOCC1 [Embodiment 59, N-(2-Chloro-3′-(4-methoxy-5-(((tetrahydro-2H-pyran-4-yl)amino)methyl)pyridin-2-yl)-2′-methyl-[1,1′-biphenyl]-3-yl)-1,5-dimethyl-4,5,6,7-tetrahydro-1H-imidazo[4,5-c]pyridine-2-carboxamide]
2 | 93 | 5.6 | 6.3 | COc1cc(C(=O)Nc2cccc(-c3cccc(NC(=O)c4nc5c(n4C)CCN(C)C5)c3Cl)c2C)ncc1CN[C@H]1CCCNC1=O [Embodiment 98, (S)—N-(2-Chloro-3′-(4-methoxy-5-(((2-carbonylpiperidin-3-yl)amino)methyl)picolinamido)-2′-methyl-[1,1′-biphenyl]-3-yl)-1,5-dimethyl-4,5,6,7-tetrahydro-1H-imidazo[4,5-c]pyridine-2-carboxamide]
3 | 97 | 1.9 | 5 | COc1cc(C(=O)Nc2cccc(-c3cccc(NC(=O)c4nc5c(n4C)CCN(C)C5)c3Cl)c2C)ncc1CNC[C@@H]1CCC(=O)N1 [Embodiment 39, (S)—N-(2-Chloro-3′-(4-methoxy-5-((((5-carbonylpyrrolidin-2-yl)methyl)amino)methyl)picolinamido)-2′-methyl-[1,1′-biphenyl]-3-yl)-1,5-dimethyl-4,5,6,7-tetrahydro-1H-imidazo[4,5-c]pyridine-2-carboxamide]
4 | 93 | 10.7 | 5.1 | COc1cc(C(=O)Nc2cccc(-c3cccc(NC(=O)c4nc5c(n4C)CCN(C)C5)c3Cl)c2C)ncc1CO [Embodiment 49, N-(2-Chloro-3′-(5-(2-hydroxymethyl)-4-methoxypicolinamido)-2′-methyl-[1,1′-biphenyl]-3-yl)-1,5-dimethyl-4,5,6,7-tetrahydro-1H-imidazo[4,5-c]pyridine-2-carboxamide]
5 |  |  | 8.4 | COc1cc(CN2CC(F)C2)cnc1C(=O)Nc1cccc(-c2cccc(NC(=O)c3nc4c(n3C)CCN(C)C4)c2Cl)c1C [Embodiment 108, N-(2-Chloro-3′-(5-((3-fluoroazetidin-1-yl)methyl)-3-methoxypicolinamido)-2′-methyl-[1,1′-biphenyl]-3-yl)-1,5-dimethyl-4,5,6,7-tetrahydro-1H-imidazo[4,5-c]pyridine-2-carboxamide]
6 |  |  | 7.7 | COc1cc(-c2cccc(-c3cccc(NC(=O)c4nc5c(n4C)CCN(C)C5)c3Cl)c2Cl)cnc1CN1CC(F)C1 [Embodiment 163, N-(2,2′-Dichloro-3′-(6-((3-fluoroazetidin-1-yl)methyl)-5-methoxypyridin-3-yl)-[1,1′-biphenyl]-3-yl)-1,5-dimethyl-4,5,6,7-tetrahydro-1H-imidazo[4,5-c]pyridine-2-carboxamide]
7 |  |  | 8.5 | Cc1nccc(NCc2ccc(C(=O)Nc3cccc(-c4cccc(NC(=O)c5nc6c(n5C)CCN(C)C6)c4Cl)c3C)nc2)c1F [Embodiment 105, N-(2-Chloro-3′-(5-(((3-fluoro-2-methylpyridin-4-yl)amino)methyl)picolinamido)-2′-methyl-[1,1′-biphenyl]-3-yl)-1,5-dimethyl-4,5,6,7-tetrahydro-1H-imidazo[4,5-c]pyridine-2-carboxamide]
8 |  |  | 6.9 | COc1cc(-c2cccc(-c3cccc(NC(=O)c4nc5c(n4C)CCN(C)C5)c3Cl)c2C)ncc1CN1CC[C@@H](F)C1 [Embodiment 60, (R)—N-(2-Chloro-3′-(5-((3-fluoropyrrolidin-1-yl)methyl)-4-methoxypyridin-2-yl)-2′-methyl-[1,1′-biphenyl]-3-yl)-1,5-dimethyl-4,5,6,7-tetrahydro-1H-imidazo[4,5-c]pyridine-2-carboxamide]
9 |  |  | 4.1 | COc1nc(OCc2cccc(-c3cccc(NC(=O)c4nc5c(n4C)CCN(C)C5)c3Cl)c2C)nc(OC)c1CN1CCCC[C@H]1C(=O)O [Embodiment 170, (S)-1-((2-((2′-Chloro-3′-(1,5-dimethyl-4,5,6,7-tetrahydro-1H-imidazo[4,5-c]pyridine-2-carboxamido)-2-methyl-[1,1′-biphenyl]-3-yl)methoxy)-4,6-dimethoxypyrimidin-5-yl)methyl)piperidine-2-carboxylic Acid]
10 |  |  | 9.1 | COc1cc(C(=O)Nc2cccc(-c3cccc(NC(=O)c4nc5c(n4C)CCN(C)C5)c3Cl)c2C)ncc1CN1CC2(COC2)CC1=O [Embodiment 104, N-(2-Chloro-3′-(4-methoxy-5-((7-carbonyl-2-oxa-6-azaspiro[3.4]octan-6-yl)methyl)picolinamido)-2′-methyl-[1,1′-biphenyl]-3-yl)-1,5-dimethyl-4,5,6,7-tetrahydro-1H-imidazo[4,5-c]pyridine-2-carboxamide]
11 |  |  | 4.1 | COc1nc(C(=O)Nc2cccc(-c3cccc(NC(=O)c4nc5c(n4C)CCN(C)C5)c3Cl)c2C)ccc1CN[C@@H](C)CO [Embodiment 43, (S)—N-(2-Chloro-3′-(5-(((1-hydroxypropan-2-yl)amino)methyl)-6-methoxypicolinamido)-2′-methyl-[1,1′-biphenyl]-3-yl)-1,5-dimethyl-4,5,6,7-tetrahydro-1H-imidazo[4,5-c]pyridine-2-carboxamide]
12 |  |  | 9.1 | CNC(=O)CNCc1ccc(-c2cccc(-c3cccc(NC(=O)c4nc5c(n4C)CCN(C)C5)c3Cl)c2Cl)nc1OC [Embodiment 140, N-(2,2′-Dichloro-3′-(6-methoxy-5-(((2-(methylamino)-2-carbonylethyl)amino)methyl)pyridin-2-yl)-[1,1′-biphenyl]-3-yl)-1,5-dimethyl-4,5,6,7-tetrahydro-1H-imidazo[4,5-c]pyridine-2-carboxamide]
13 |  |  | 6 | COc1cc(C(=O)Nc2cccc(-c3cccc(NC(=O)c4nc5c(n4C)CCN(C)C5)c3Cl)c2C)ncc1CNC1CN(C(C)=O)C1 [Embodiment 100, N-(3′-(5-(((1-Acetylazetidin-3-yl)amino)methyl)-4-methoxypicolinamido)-2-chloro-2′-methyl-[1,1′-biphenyl]-3-yl)-1,5-dimethyl-4,5,6,7-tetrahydro-1H-imidazo[4,5-c]pyridine-2-carboxamide]
14 |  |  | 9 | COc1cc(C(=O)Nc2cccc(-c3cccc(NC(=O)c4nc5c(n4C)CCN(C)C5)c3Cl)c2C)ncc1C(C)(C)O [Embodiment 50, N-(2-Chloro-3′-(5-(2-hydroxypropan-2-yl)-4-methoxypicolinamido)-2′-methyl-[1,1′-biphenyl]-3-yl)-1,5-dimethyl-4,5,6,7-tetrahydro-1H-imidazo[4,5-c]pyridine-2-carboxamide]
